Experimental data reported in patent US20060121085A1, “Formulations for cell-schedule dependent anticancer agents” (priority 2003, published 2006).
Read-outs that look alike come from different tables or passages of the source.

Experiments:
[1] = Dog; cited from earlier work
[2] = mouse at 2.5 and 100 mg/kg (cleft palate, skeletal defects, limb deformities); cited from earlier work
[3] = Rat; cited from earlier work
[4] = cited from earlier work
[5] = tested on: subcutaneous Hey (Human Ovarian Cancer) tumors; details: 100 mg/kg FUDR/Saline × 2 (1 & 14 days), i.p., 20 μL
Method: In this study, SCID mice bearing established (˜0.5 cm diameter) SC ovarian (Hey) tumors were used in this study and were randomized to equalize the tumor volume prior to initiation of drug therapy. Doses of 50 and 100 mg/kg were administered intratumorally. Floxuridine in saline at 100 mg/kg was administered by intraperitoneal injection. ATRIGEL® alone was administered in a volume equal to the 100 mg/kg group.
Mice were injected with 10×10^6 Hey (Human Ovarian Cancer) cells. When the average tumor diameter was approximately 0.5 cm, mice were divided into treatment groups such that the mean tumor volume in each group was equivalent and drug was administered. […] The volume of Floxuridine/polymer used was calculated assuming total release of drug from the polymer and a drug concentration of 0.10 mg/μL of polymer. […]
• All SCID mice used for this study were screened for IgG production and those mice producing IgG (“leaky”) were eliminated from the study group. • Mice were injected with 10×10^6 Hey cells. • When tumors achieved approximately 0.5 cm diameter, drug treatments were initiated. […] All treatments consisted of two injections (Days 1 and 14). • Mice were monitored weekly for weight, tumor size and toxicity symptoms (survival, general health, fur condition, etc.) for at least 5 weeks and the efficacy was compared

mouse embryo fibroblasts = details: cited from earlier work
[6] = Rabbit; cited from earlier work
[7] = Mouse; cited from earlier work
[8] = cited from earlier work; remark: listed apart in the source

For O=c1[nH]c(=O)n([C@H]2C[C@H](O)[C@@H](CO)O2)cc1F [FUDR, 5-fluorodeoxyuridine], the “Lethal Intravenous Doses” value [1] is listed as 157 +/− 46, the Teratogenicity [2] is listed as “Teratogenic” and the “Lethal Intravenous Doses” value [3] is listed as 670 +/− 73. For the same compound, the “Reproductive Toxicant, female” value ([4]; female rats at 25 or 50 mg/kg) was “reproductive toxicity”, the Teratogenicity ([4]; rat at 75 and 150 mg/kg (cleft palate, skeletal defects, limb deformities)) was “Teratogenic” and the “Reproductive Toxicant, male” value ([4]; rats at 125-250 mg/kg i.p.) was “spermato-toxic”. For the same compound, the “Mortality (%)” value [5] was 0%, the “Mortality (%)” value ([5]; listed as free Floxuridine) was “all surviving” and the Mutagenicity (mouse embryo fibroblasts) was “Mutagenic”. For the same compound, the “Lethal Intravenous Doses” value [6] was 94 +/− 19.6, the “Lethal Intravenous Doses” value [7] was 880 +/− 51 and the “MTD, cumulative dose” value ([8]; 50 mg/kg/day × 5 days) was 250 mg/kg. For the same compound, the “maximum tolerated dose (MTD)” value ([8]; normal (immunocompetent) mice, intraperitoneal injection, × 5 days) was 50 mg/kg/day.
